Laboratory results: the supplement of paper PMC11061612

Columns and labels:
Experiment in all cases: combination Emax (second highest fraction inhibited in the dose matrix, 72 h); higher = more inhibition; extreme values may be limits of the assay
[1] = system: TCCSUP (Bladder Carcinoma)
Outline: (§1)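 Bliss excess equals the observed combination effect minus the expected value EA + EB − EA·EB, where EA and EB are the effects of each agent alone. Combination Emax is the second-highest inhibition within the matrix. Inhibition was scaled from CellTiter-Glo 2.0 luminescence, with 0 set by vehicle wells and 1 by blank wells, after 72 hours of two-drug dosing of cells plated in 1536-well plates.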

[2] = system: NOS-1 (Osteosarcoma)
Outline: as §1

[3] = system: HCC1806 (Breast Carcinoma)
Outline: as §1

[4] = system: SK-ES-1 (Ewing's Sarcoma)
Outline: as §1

[5] = system: Daoy (Other Solid Carcinomas)
Outline: as §1

[6] = system: Ramos-2G6-4C10 (Burkitt's Lymphoma)
Outline: as §1

[7] = system: NCI-H82 (Small Cell Lung Carcinoma)
Outline: as §1

[8] = system: CaR-1 (Colorectal Carcinoma)
Outline: as §1

[9] = system: KURAMOCHI (Ovarian Carcinoma)
Outline: as §1

[10] = system: UM-UC-3 (Bladder Carcinoma)
Outline: as §1

[11] = system: DEL (T-Cell Non-Hodgkin's Lymphoma)
Outline: as §1

[12] = system: COLO-205 (Colorectal Carcinoma)
Outline: as §1

[13] = system: SNU-5 (Gastric Carcinoma)
Outline: as §1

[14] = system: ES4 (Ewing's Sarcoma)
Outline: as §1

[15] = system: T98G (Glioblastoma)
Outline: as §1

[16] = system: CAL-148 (Breast Carcinoma)
Outline: as §1

[17] = system: B-CPAP (Thyroid Gland Carcinoma)
Outline: as §1

[18] = system: RO82-W-1 (Thyroid Gland Carcinoma)
Outline: as §1

[19] = system: TE-9 (Esophageal Squamous Cell Carcinoma)
Outline: as §1

| SMILES | combination Emax [1] | combination Emax [2] | combination Emax [3] | combination Emax [4] | combination Emax [5] | combination Emax [6] | combination Emax [7] | combination Emax [8] | combination Emax [9] | combination Emax [10] | combination Emax [11] | combination Emax [12] | combination Emax [13] | combination Emax [14] | combination Emax [15] | combination Emax [16] | combination Emax [17] | combination Emax [18] | combination Emax [19] |
| --- | --- | --- | --- | --- | --- | --- | --- | --- | --- | --- | --- | --- | --- | --- | --- | --- | --- | --- | --- |
| COc1cccc(OCCCN)c1-c1cc(Nc2cnc(C#N)cn2)n[nH]1 [Prexasertib] + Cc1cc2ncnn2cc1Nc1ncc2c(n1)n(C1CCOCC1)c(=O)n2C [AZD7648] (first compound max 1 µM, 7x7, partner max 10 µM) | 0.704 | 0.321 | 0.978 | 0.964 | 0.965 | 1 | 1 | 0.67 | 0.672 | 0.56 | 1 | 0.675 | 0.983 | 0.93 | 0.893 | 0.734 | 0.73 | 0.45 | 0.516 |
| COc1cccc2c1C(=O)c1c(O)c3c(c(O)c1C2=O)C[C@@](O)(C(=O)CO)C[C@@H]3O[C@H]1C[C@H](N)[C@H](O)[C@H](C)O1 [Doxorubicin] + Cc1cc2ncnn2cc1Nc1ncc2c(n1)n(C1CCOCC1)c(=O)n2C [AZD7648] (first compound max 1 µM, 7x7, partner max 10 µM) | 0.665 | 0.369 | 0.919 | 0.983 | 0.875 | 0.951 | 0.949 | 0.807 | 0.546 | 0.802 | 1 | 0.727 | 0.823 | 0.945 | 0.597 | 1 | 0.941 | 0.628 | 0.148 |
| COc1cccc(OCCCN)c1-c1cc(Nc2cnc(C#N)cn2)n[nH]1 [Prexasertib] + CN(C)CCCOc1ccc(-c2ccc3ncc4c(c3c2)n(C2CCOCC2)c(=O)n4C)cn1 [AZD0156] (first compound max 1 µM, 7x7, partner max 1 µM) | 0.689 | 0.332 | 0.967 | 0.948 | 0.958 | 1 | 1 | 0.627 | 0.706 | 0.537 | 1 | 0.673 | 0.926 | 0.912 | 0.899 | 0.642 | 0.686 | 0.572 | 0.596 |
| CCc1c2c(nc3ccc(O)cc13)-c1cc3c(c(=O)n1C2)COC(=O)[C@]3(O)CC [SN-38] + O=C(c1cc(Cc2n[nH]c(=O)c3ccccc23)ccc1F)N1CCN(C(=O)C2CC2)CC1 [Olaparib] (first compound max 0.3 µM, 7x7, partner max 10 µM) | 0.665 | 0.134 | 0.974 | 1 | 0.971 | 0.996 | 0.787 | 0.912 | 0.651 | 0.985 | 1 | 0.618 | – | 0.767 | 0.632 | 0.96 | 0.946 | 0.469 | 0.458 |
| CN(C)CCCOc1ccc(-c2ccc3ncc4c(c3c2)n(C2CCOCC2)c(=O)n4C)cn1 [AZD0156] + C[C@@H]1COCCN1C2=NC(=NC(=C2)C3(CC3)[S@](=N)(=O)C)C4=C5C=CNC5=NC=C4 [AZD6738] (first compound max 1 µM, 7x7, partner max 10 µM) | 0.591 | 0.255 | 0.937 | 0.855 | 0.848 | 0.981 | 0.948 | 0.435 | 0.597 | 0.475 | 0.988 | 0.247 | 0.882 | 0.844 | 0.855 | 0.791 | 0.479 | 0.34 | 0.354 |
| C=CCn1c(=O)c2cnc(Nc3ccc(N4CCN(C)CC4)cc3)nc2n1-c1cccc(C(C)(C)O)n1 [AZD1775] + O=C(c1cc(Cc2n[nH]c(=O)c3ccccc23)ccc1F)N1CCN(C(=O)C2CC2)CC1 [Olaparib] (first compound max 1 µM, partner max 10 µM) | 0.461 | 0.376 | 0.836 | 0.954 | 0.882 | 1 | 0.851 | 0.257 | 0.699 | 0.326 | 0.999 | 0.336 | 0.433 | 0.563 | 0.675 | 0.978 | 0.456 | 0.405 | 0.307 |
| COc1cccc(OCCCN)c1-c1cc(Nc2cnc(C#N)cn2)n[nH]1 [Prexasertib] + C=CCn1c(=O)c2cnc(Nc3ccc(N4CCN(C)CC4)cc3)nc2n1-c1cccc(C(C)(C)O)n1 [AZD1775] (first compound max 1 µM, partner max 1 µM) | 0.748 | 0.432 | 0.983 | 1 | 0.985 | 1 | 0.996 | 0.797 | 0.773 | 0.807 | 1 | 0.908 | 0.969 | 0.893 | 0.917 | 1 | 0.874 | 0.553 | 0.86 |
| CN(C)CCCOc1ccc(-c2ccc3ncc4c(c3c2)n(C2CCOCC2)c(=O)n4C)cn1 [AZD0156] + C=CCn1c(=O)c2cnc(Nc3ccc(N4CCN(C)CC4)cc3)nc2n1-c1cccc(C(C)(C)O)n1 [AZD1775] (first compound max 1 µM, partner max 1 µM) | 0.356 | 0.247 | 0.901 | 0.903 | 0.847 | 0.995 | 0.901 | 0.128 | 0.678 | 0.264 | 1 | 0.341 | 0.56 | 0.438 | 0.657 | 0.966 | 0.357 | 0.38 | 0.231 |
| COc1cccc(OCCCN)c1-c1cc(Nc2cnc(C#N)cn2)n[nH]1 [Prexasertib] + C[C@@H]1COCCN1C2=NC(=NC(=C2)C3(CC3)[S@](=N)(=O)C)C4=C5C=CNC5=NC=C4 [AZD6738] (first compound max 1 µM, 7x7, partner max 10 µM) | 0.712 | 0.381 | 0.988 | 0.944 | 0.956 | 1 | 0.995 | 0.696 | 0.647 | 0.615 | 1 | 0.565 | 0.975 | 0.879 | 0.905 | 0.895 | 0.742 | 0.441 | 0.481 |
| Cc1cc2ncnn2cc1Nc1ncc2c(n1)n(C1CCOCC1)c(=O)n2C [AZD7648] + O=C(c1cc(Cc2n[nH]c(=O)c3ccccc23)ccc1F)N1CCN(C(=O)C2CC2)CC1 [Olaparib] (first compound max 10 µM, 7x7, partner max 10 µM) | 0.134 | 0.0915 | 0.142 | 0.923 | 0.357 | 0.169 | 0.333 | 0.111 | 0.16 | 0.145 | 0.693 | 0.0328 | 0.374 | 0.572 | 0.203 | 0.255 | 0.265 | 0.251 | 0.119 |
| CCN(CCO)CCCOc1ccc2c(Nc3cc(CC(=O)Nc4cccc(F)c4)[nH]n3)ncnc2c1 [AZD2811] + O=C(c1cc(Cc2n[nH]c(=O)c3ccccc23)ccc1F)N1CCN(C(=O)C2CC2)CC1 [Olaparib] (first compound max 1 µM, 7x7, partner max 10 µM) | 0.268 | 0.22 | 0.265 | 0.954 | 0.454 | 0.295 | 0.615 | 0.19 | 0.237 | 0.305 | 0.823 | 0.868 | 0.108 | 0.47 | 0.453 | 0.966 | 0.231 | 0.195 | 0.155 |
| COc1cccc(OCCCN)c1-c1cc(Nc2cnc(C#N)cn2)n[nH]1 [Prexasertib] + O=C(c1cc(Cc2n[nH]c(=O)c3ccccc23)ccc1F)N1CCN(C(=O)C2CC2)CC1 [Olaparib] (first compound max 1 µM, 7x7, partner max 10 µM) | 0.731 | 0.373 | 0.999 | 1 | 0.983 | 1 | 0.925 | 0.638 | 0.68 | 0.629 | 1 | 0.573 | 0.968 | 0.887 | 0.757 | 0.696 | 0.763 | 0.45 | 0.567 |
| COc1cc2c(cc1OCCCCCOc1cc3c(cc1OC)C(=O)N1C=C(C)C[C@H]1C=N3)N=C[C@@H]1CC(C)=CN1C2=O [SG3199] + O=C(c1cc(Cc2n[nH]c(=O)c3ccccc23)ccc1F)N1CCN(C(=O)C2CC2)CC1 [Olaparib] (first compound max 0.001 µM, 7x7, partner max 10 µM) | 0.162 | 0.155 | 0.212 | 0.917 | 0.42 | 0 | 0.323 | 0.0995 | 0.129 | 0.132 | 0.597 | 0.0813 | 0.129 | 0.566 | 0.114 | 0.211 | 0.217 | 0.17 | 0.0964 |
| C[C@@H]1COCCN1c1cc(C2([S@](C)(=N)=O)CC2)nc(-c2ccnc3[nH]ccc23)n1 [AZD6738] + O=C(c1cc(Cc2n[nH]c(=O)c3ccccc23)ccc1F)N1CCN(C(=O)C2CC2)CC1 [Olaparib] (first compound max 10 µM, 7x7, partner max 10 µM) | 0.646 | 0.326 | 0.89 | 0.933 | 0.867 | 0.779 | 0.921 | 0.441 | 0.549 | 0.584 | 0.993 | 0.301 | 0.909 | 0.817 | 0.817 | 0.935 | 0.498 | 0.353 | 0.436 |
